# Several values for one entry are separate records, joined by “and”; a condition that tells them apart may be missing. Identical values can stand only once. Toxic doses and inconclusive results are not listed.
# System: BDF1 mice, P388 leukemia ip, median survival T/C
# Experiment: NCI In Vivo Anticancer Drug Screen. Data for tumor model P388 Leukemia (intraperitoneal) in B6D2F1 (BDF1) mice
# Conditions: endpoint: median survival time, higher = longer survival
# In short: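 Steps: implant the tumour, treat one group with compound and another with vehicle, record survival, then divide treated by control.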
# [1] = dose: 50.0 mg/kg/injection, schedule: Q01DX009 (ip), vehicle: Klucel (hydroxypropylcellulose) (HPC)
# [2] = dose: 100.0 mg/kg/injection, schedule: Q01DX009 (ip), vehicle: Klucel (hydroxypropylcellulose) (HPC)
# [3] = dose: 100.0 mg/kg/injection, schedule: Q04DX003 (ip), vehicle: Klucel (hydroxypropylcellulose) (HPC)
# [4] = dose: 200.0 mg/kg/injection, schedule: Q01DX009 (ip), vehicle: Klucel (hydroxypropylcellulose) (HPC)
# [5] = dose: 200.0 mg/kg/injection, schedule: Q04DX003 (ip), vehicle: Klucel (hydroxypropylcellulose) (HPC)
# [6] = dose: 400.0 mg/kg/injection, schedule: Q01DX009 (ip), vehicle: Klucel (hydroxypropylcellulose) (HPC)
# [7] = dose: 400.0 mg/kg/injection, schedule: Q04DX003 (ip), vehicle: Klucel (hydroxypropylcellulose) (HPC)
# [8] = dose: 100.0 mg/kg/injection, schedule: Q04DX003 (ip), vehicle: saline with Tween-80
# [9] = dose: 200.0 mg/kg/injection, schedule: Q04DX003 (ip), vehicle: saline with Tween-80
# [10] = dose: 400.0 mg/kg/injection, schedule: Q04DX003 (ip), vehicle: saline with Tween-80
# [11] = dose: 100.0 mg/kg/injection, schedule: Q01DX009 (ip), vehicle: saline with Tween-80
# [12] = dose: 200.0 mg/kg/injection, schedule: Q01DX009 (ip), vehicle: saline with Tween-80
# [13] = dose: 25.0 mg/kg/injection, schedule: Q01DX009 (ip), vehicle: saline with Tween-80
# [14] = dose: 50.0 mg/kg/injection, schedule: Q01DX009 (ip), vehicle: saline with Tween-80
# [15] = dose: 12.5 mg/kg/injection, schedule: Q01DX009 (ip), vehicle: saline
# [16] = dose: 25.0 mg/kg/injection, schedule: Q01DX009 (ip), vehicle: saline
# [17] = dose: 50.0 mg/kg/injection, schedule: Q04DX003 (ip), vehicle: Klucel (hydroxypropylcellulose) (HPC)
# [18] = dose: 100.0 mg/kg/injection, schedule: Q01DX009 (ip), vehicle: saline
# [19] = dose: 100.0 mg/kg/injection, schedule: Q04DX003 (ip), vehicle: saline
# [20] = dose: 200.0 mg/kg/injection, schedule: Q01DX009 (ip), vehicle: saline
# [21] = dose: 200.0 mg/kg/injection, schedule: Q04DX003 (ip), vehicle: saline
# [22] = dose: 400.0 mg/kg/injection, schedule: Q04DX003 (ip), vehicle: saline
# [23] = dose: 25.0 mg/kg/injection, schedule: Q04DX003 (ip), vehicle: Klucel (hydroxypropylcellulose) (HPC)
compound,measurement,setting,value
Cc1ccc(CCO)c(C)c1,T/C,[1],95 % of control
same,T/C,[2],109 % of control
same,T/C,[3],100 % of control
same,T/C,[4],90 % of control
same,T/C,[5],90 % of control
same,T/C,[6],113 % of control
same,T/C,[7],100 % of control
FC(F)(F)C(Cl)Br (centres undefined),T/C,"dose: 100.0 mg/kg/injection, schedule: Q01DX001 (ip), vehicle: saline",90 % of control
same,T/C,"dose: 150.0 mg/kg/injection, schedule: Q04DX003 (ip), vehicle: saline",86 % of control
same,T/C,"dose: 200.0 mg/kg/injection, schedule: Q01DX001 (ip), vehicle: saline",90 % of control
same,T/C,"dose: 225.0 mg/kg/injection, schedule: Q04DX003 (ip), vehicle: saline",100 % of control
same,T/C,"dose: 335.0 mg/kg/injection, schedule: Q04DX003 (ip), vehicle: saline",86 % of control
same,T/C,"dose: 400.0 mg/kg/injection, schedule: Q01DX001 (ip), vehicle: saline",100 % of control
CCOC(=O)N1Cc2cc3cc(OC)c(OC)cc3nc2C1,T/C,[8],105 % of control
same,T/C,[9],90 % of control
same,T/C,[10],105 % of control
FC(F)(F)c1nc2nc(Br)c(Br)nc2[nH]1,T/C,[11],100 % of control
same,T/C,[8],87 % of control
same,T/C,[12],90 % of control
same,T/C,[10],91 % of control
Cc1ccc(S(=O)(=O)Nc2ccc([N+](=O)[O-])cc2[N+](=O)[O-])cc1,T/C,[13],95 % of control
same,T/C,[14],92 % of control
Nc1cc(Cl)c2cccnc2c1O,T/C,[15],111 % of control and 115 % of control
same,T/C,"dose: 22.0 mg/kg/injection, schedule: Q01DX009 (ip), vehicle: saline",118 % of control
same,T/C,[16],104 % of control and 117 % of control
same,T/C,"dose: 44.0 mg/kg/injection, schedule: Q04DX003 (ip), vehicle: saline sonified",100 % of control
same,T/C,"dose: 50.0 mg/kg/injection, schedule: Q04DX003 (ip), vehicle: saline sonified",100 % of control
same,T/C,"dose: 66.0 mg/kg/injection, schedule: Q04DX003 (ip), vehicle: saline sonified",118 % of control
same,T/C,"dose: 100.0 mg/kg/injection, schedule: Q04DX003 (ip), vehicle: saline sonified",113 % of control
CN(C)c1ccc(/C=N/Nc2ncnc3nc[nH]c23)cc1,T/C,[8],103 % of control
same,T/C,[9],96 % of control
same,T/C,[10],103 % of control
CCC(=O)NC(C(=O)NC(C(=O)NC(CC(C)C)C(O)CC(=O)NC(C)C(=O)NC(CC(C)C)C(O)CC(=O)O)C(C)C)C(C)C (centres undefined),T/C,"dose: 12.5 mg/kg/injection, schedule: Q01DX009 (ip), vehicle: saline with Tween-80",100 % of control
same,T/C,[13],109 % of control
same,T/C,[14],109 % of control and 114 % of control
same,T/C,[11],94 % of control
NS(=O)(=O)c1ccc(NC2OCC(O)C(O)C2O)cc1 (centres undefined),T/C,[11],95 % of control
same,T/C,[12],90 % of control
same,T/C,"dose: 400.0 mg/kg/injection, schedule: Q01DX009 (ip), vehicle: saline with Tween-80",100 % of control
CC1CCOS(=O)O1 (centres undefined),T/C,"dose: 10.0 mg/kg/injection, schedule: Q01DX010 (ip), vehicle: saline",100 % of control
same,T/C,"dose: 20.0 mg/kg/injection, schedule: Q01DX010 (ip), vehicle: saline",95 % of control and 104 % of control
same,T/C,"dose: 40.0 mg/kg/injection, schedule: Q01DX010 (ip), vehicle: saline",100 % of control and 104 % of control
CCCCC(C)(CN(C)C)C(=O)/C=C/c1ccc(Cl)c(Cl)c1 (centres undefined),T/C,"dose: 6.25 mg/kg/injection, schedule: Q01DX009 (ip), vehicle: saline",112 % of control
same,T/C,[15],120 % of control
same,T/C,[16],118 % of control
CCOC(=O)N1c2ccccc2C=CC1/C(N)=N/O (centres undefined),T/C,"dose: 25.0 mg/kg/injection, schedule: Q01DX009 (ip), vehicle: Klucel (hydroxypropylcellulose) (HPC)",109 % of control
same,T/C,[1],95 % of control
same,T/C,[17],95 % of control
same,T/C,[2],104 % of control
same,T/C,[3],95 % of control
CCCSCCCC(=O)O,T/C,[17],91 % of control
same,T/C,[5],91 % of control
NC(=O)n1nccc1N,T/C,[18],100 % of control
same,T/C,[19],105 % of control
same,T/C,[20],100 % of control
same,T/C,[21],115 % of control
same,T/C,"dose: 400.0 mg/kg/injection, schedule: Q01DX009 (ip), vehicle: saline",90 % of control
same,T/C,[22],110 % of control
CC1(C)N=C(N)N=C(N)N1c1cccc(OCCCOc2ccccc2)c1,T/C,"dose: 50.0 mg/kg/injection, schedule: Q01DX001 (ip), vehicle: Klucel (hydroxypropylcellulose) (HPC)",106 % of control
CCn1cnc2c(=S)nc(N)[nH]c21,T/C,"dose: 3.12 mg/kg/injection, schedule: Q01DX009 (ip), vehicle: Klucel (hydroxypropylcellulose) (HPC)",100 % of control
same,T/C,"dose: 6.25 mg/kg/injection, schedule: Q01DX009 (ip), vehicle: Klucel (hydroxypropylcellulose) (HPC)",118 % of control
same,T/C,"dose: 12.5 mg/kg/injection, schedule: Q01DX009 (ip), vehicle: Klucel (hydroxypropylcellulose) (HPC)",90 % of control
same,T/C,[23],100 % of control
same,T/C,[17],100 % of control
same,T/C,[3],104 % of control
C[Si](C)(OC(=O)N(CCCl)CCCl)O[Si](C)(C)OC(=O)N(CCCl)CCCl,T/C,"dose: 6.25 mg/kg/injection, schedule: Q01DX009 (ip), vehicle: saline with Tween-80",110 % of control
same,T/C,[13],185 % of control
same,T/C,[14],208 % of control
O=C(NC1CCCCC1)O/N=C/c1ccccn1,T/C,"dose: 100.0 mg/kg/injection, schedule: Q01DX001 (ip), vehicle: other",87 % of control
same,T/C,"dose: 400.0 mg/kg/injection, schedule: Q01DX001 (ip), vehicle: other",91 % of control
CCN(CC)CCC1(C(N)=O)Cc2ccccc2N(CC)c2ccccc21 (centres undefined),T/C,[11],100 % of control
same,T/C,[12],100 % of control
CCN(CC)Cc1cc(Nc2c3ccc([N+](=O)[O-])cc3nc3ccc(OC)cc23)ccc1O,T/C,"dose: 12.5 mg/kg/injection, schedule: Q04DX003 (ip), vehicle: saline",111 % of control
same,T/C,[16],97 % of control
same,T/C,"dose: 25.0 mg/kg/injection, schedule: Q04DX003 (ip), vehicle: saline",111 % of control
same,T/C,"dose: 50.0 mg/kg/injection, schedule: Q01DX009 (ip), vehicle: saline",104 % of control
same,T/C,"dose: 50.0 mg/kg/injection, schedule: Q04DX003 (ip), vehicle: saline",113 % of control
same,T/C,[18],100 % of control
same,T/C,[19],113 % of control
same,T/C,[20],121 % of control
same,T/C,[21],89 % of control
same,T/C,[22],104 % of control
CC(=O)Nc1nnc(/C=C/c2ccc([N+](=O)[O-])o2)s1,T/C,[7],100 % of control
CCOC(=O)CCC(NC(=O)c1ccc2c(c1)CCCN2C=O)C(=O)OCC (centres undefined),T/C,"dose: 25.0 mg/kg/injection, schedule: Q01DX001 (ip), vehicle: saline sonified",100 % of control
same,T/C,"dose: 50.0 mg/kg/injection, schedule: Q01DX001 (ip), vehicle: saline sonified",100 % of control
same,T/C,"dose: 100.0 mg/kg/injection, schedule: Q01DX001 (ip), vehicle: saline sonified",100 % of control
Clc1ccc(C2c3ccccc3C[n+]3ccccc32)cc1 (centres undefined),T/C,"dose: 8.75 mg/kg/injection, schedule: Q01DX009 (ip), vehicle: Klucel (hydroxypropylcellulose) (HPC)",113 % of control
same,T/C,"dose: 12.5 mg/kg/injection, schedule: Q04DX003 (ip), vehicle: Klucel (hydroxypropylcellulose) (HPC)",95 % of control
same,T/C,"dose: 17.5 mg/kg/injection, schedule: Q01DX009 (ip), vehicle: Klucel (hydroxypropylcellulose) (HPC)",109 % of control
same,T/C,[23],91 % of control
CCCCCOc1cc(C(C)=O)cc(OC)c1OC(=O)c1cc([N+](=O)[O-])cc([N+](=O)[O-])c1,T/C,"dose: 100.0 mg/kg/injection, schedule: Q01DX001 (ip), vehicle: saline with Tween-80",100 % of control
same,T/C,"dose: 200.0 mg/kg/injection, schedule: Q01DX001 (ip), vehicle: saline with Tween-80",90 % of control
same,T/C,"dose: 400.0 mg/kg/injection, schedule: Q01DX001 (ip), vehicle: saline with Tween-80",90 % of control
CCCNC(=O)OCC#CC#CCOC(=O)NCCC,T/C,[2],86 % of control
same,T/C,[3],90 % of control
same,T/C,[4],100 % of control
same,T/C,[5],95 % of control
same,T/C,[6],104 % of control
same,T/C,[7],113 % of control

# Reference: PubChem BioAssay AID328 (DTP/NCI, 2004)
